SMILES strings stand for the structures. Several values for one entry are separate records, joined by “and”; a condition that tells them apart may be missing. Identical values can stand only once. Inconclusive results and toxic doses are left out.

The subject of this assay is L1210 leukemia ip in BDF1 mice, survival T/C. Briefly: NCI In Vivo Anticancer Drug Screen. Data for tumor model L1210 Leukemia (intraperitoneal) in B6D2F1 (BDF1) mice. To be noted: endpoint: mean survival time, higher = longer survival. In outline:
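Transplanted-tumor mice were given test agent; controls received vehicle only. Survival readings from the two groups were divided (treated over control).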

Where [1] appears, read: dose: 100.0 mg/kg/injection, schedule: Q01DX009 (ip), vehicle: saline with Tween-80.
Setting [2] is: dose: 100.0 mg/kg/injection, schedule: Q04DX003 (ip), vehicle: saline with Tween-80.
Where [3] appears, read: dose: 200.0 mg/kg/injection, schedule: Q01DX009 (ip), vehicle: saline with Tween-80.
Where [4] appears, read: dose: 200.0 mg/kg/injection, schedule: Q04DX003 (ip), vehicle: saline with Tween-80.
[5] abbreviates: dose: 25.0 mg/kg/injection, schedule: Q01DX009 (ip), vehicle: Klucel (hydroxypropylcellulose) (HPC).
The mark [6] stands for this setting: dose: 50.0 mg/kg/injection, schedule: Q01DX009 (ip), vehicle: Klucel (hydroxypropylcellulose) (HPC).
The mark [7] stands for this setting: dose: 100.0 mg/kg/injection, schedule: Q01DX009 (ip), vehicle: Klucel (hydroxypropylcellulose) (HPC).
The mark [8] stands for this setting: dose: 100.0 mg/kg/injection, schedule: Q04DX003 (ip), vehicle: Klucel (hydroxypropylcellulose) (HPC).
Setting [9] is: dose: 200.0 mg/kg/injection, schedule: Q04DX003 (ip), vehicle: Klucel (hydroxypropylcellulose) (HPC).
The mark [10] stands for this setting: dose: 400.0 mg/kg/injection, schedule: Q04DX003 (ip), vehicle: Klucel (hydroxypropylcellulose) (HPC).
The mark [11] stands for this setting: dose: 400.0 mg/kg/injection, schedule: Q01DX009 (ip), vehicle: saline with Tween-80.
Where [12] appears, read: dose: 100.0 mg/kg/injection, schedule: Q01DX001 (ip), vehicle: carboxymethylcellulose (CMC).
Where [13] appears, read: dose: 200.0 mg/kg/injection, schedule: Q01DX001 (ip), vehicle: carboxymethylcellulose (CMC).
Setting [14] is: dose: 400.0 mg/kg/injection, schedule: Q01DX001 (ip), vehicle: carboxymethylcellulose (CMC).
Where [15] appears, read: dose: 100.0 mg/kg/injection, schedule: Q01DX001 (ip), vehicle: saline.
Where [16] appears, read: dose: 200.0 mg/kg/injection, schedule: Q01DX001 (ip), vehicle: saline.
[17] abbreviates: dose: 400.0 mg/kg/injection, schedule: Q01DX001 (ip), vehicle: saline.
Setting [18] is: dose: 100.0 mg/kg/injection, schedule: Q01DX001 (ip), vehicle: saline with Tween-80.

`NC(N)=N/N=C/c1ccc(O)cc1`: the T/C is, setting by setting: (dose: 15.0 mg/kg/injection, schedule: Q01DX Z (ip), vehicle: saline) 104 % of control; (dose: 30.0 mg/kg/injection, schedule: Q01DX Z (ip), vehicle: saline) 88 % of control; (dose: 30.0 mg/kg/injection, schedule: Q01DX Z (oral), vehicle: saline) 94 % of control; (dose: 60.0 mg/kg/injection, schedule: Q01DX Z (ip), vehicle: saline) 95 % of control; (dose: 60.0 mg/kg/injection, schedule: Q01DX Z (oral), vehicle: saline) 94 % of control; (dose: 120.0 mg/kg/injection, schedule: Q01DX Z (oral), vehicle: saline) 90 % of control. Besides, the T/C (dose: 240.0 mg/kg/injection, schedule: Q01DX Z (oral), vehicle: saline) is 100 % of control.
Turning to `CSc1ccc2c(c1)-c1ccccc1C2=O`, the T/C (dose: 100.0 mg/kg/injection, schedule: Q04DX003 (ip), vehicle: acetone) was 94 % of control; the T/C (dose: 200.0 mg/kg/injection, schedule: Q04DX003 (ip), vehicle: acetone) is 89 % of control; the T/C (dose: 400.0 mg/kg/injection, schedule: Q04DX003 (ip), vehicle: acetone) was 93 % of control.
As to `CCCCC(=O)NC1=C(Cl)C(=O)c2ccccc2C1=O`, the T/C is 89 % of control (dose: 75.0 mg/kg/injection, schedule: Q01DX001 (ip), vehicle: saline) and 90 % of control (dose: 150.0 mg/kg/injection, schedule: Q01DX001 (ip), vehicle: saline).
As to `C=CN1C(=O)N(C=C)C(C)(CC(C)C)C1=O` (stereo not given), the T/C was 104 % of control (dose: 50.0 mg/kg/injection, schedule: Q01DX009 (ip), vehicle: saline with Tween-80); 103 % of control under setting [1]; 92 % of control under setting [2]; 103 % of control under setting [3]; 92 % of control under setting [4].
On to `CCN(CC)CCN(C#N)Cc1ccccc1`, for which, under “dose: 75.0 mg/kg/injection, schedule: Q01DX001 (ip), vehicle: carboxymethylcellulose (CMC)”, the T/C is 102 % of control.
For the molecule `O=C(O)c1ccc(N=NSc2ncnc3nc[nH]c23)cc1O`, the T/C runs as follows: (dose: 2.5 mg/kg/injection, schedule: Q01DX Z (ip), vehicle: carboxymethylcellulose (CMC)) 150 % of control; (dose: 5.0 mg/kg/injection, schedule: Q01DX Z (ip), vehicle: carboxymethylcellulose (CMC)) 116 % of control; (dose: 10.0 mg/kg/injection, schedule: Q01DX Z (ip), vehicle: carboxymethylcellulose (CMC)) 116 % of control; (dose: 20.0 mg/kg/injection, schedule: Q01DX Z (ip), vehicle: carboxymethylcellulose (CMC)) 107 % of control; (dose: 40.0 mg/kg/injection, schedule: Q01DX015 (ip), vehicle: carboxymethylcellulose (CMC)) 88 % of control.
In the case of `O=C(O)CCC(=O)c1ccc2sc3ccccc3c2c1`, the T/C under setting [5] was 106 % of control; the T/C under setting [6] was 100 % of control; the T/C under setting [7] was 97 % of control and 106 % of control; the T/C under setting [8] was 98 % of control; the T/C under setting [9] is 103 % of control; the T/C under setting [10] is 89 % of control.
On to `C=CCC(O)CCC` (stereo not given), for which the T/C is, setting by setting: under setting [1], 89 % of control; under setting [2], 97 % of control; under setting [3], 90 % of control; under setting [4], 100 % of control; under setting [11], 89 % of control; (dose: 400.0 mg/kg/injection, schedule: Q04DX003 (ip), vehicle: saline with Tween-80) 100 % of control.
Regarding `O[Si](O)([O][Sn]([c]1ccccc1)([c]1ccccc1)[c]1ccccc1)[O][Sn]([c]1ccccc1)([c]1ccccc1)[c]1ccccc1`, the T/C was 106 % of control (dose: 25.0 mg/kg/injection, schedule: Q01DX009 (ip), vehicle: saline with Tween-80) and 96 % of control (dose: 50.0 mg/kg/injection, schedule: Q01DX009 (ip), vehicle: saline).
Turning to `O=c1oc2c(CN3CCCCC3)c(O)ccc2c2c1CCCC2`, the T/C was 93 % of control under setting [12], 96 % of control under setting [13] and 93 % of control under setting [14].
Regarding `CC(=O)Nc1ccc2c(c1)Cc1cccc(NC(C)=O)c1-2`, the T/C is, setting by setting: under setting [5], 95 % of control; under setting [6], 103 % of control; under setting [7], 103 % of control.
In the case of `CCCCCCCC/C=C\CCCCCCCCOB(OCCCCCCCC/C=C/CCCCCCCC)OCCCCCCCC/C=C/CCCCCCCC`, the T/C (dose: 50.0 mg/kg/injection, schedule: Q01DX001 (ip), vehicle: carboxymethylcellulose (CMC)) is 96 % of control; the T/C under setting [12] was 105 % of control; the T/C under setting [13] is 105 % of control; the T/C under setting [14] was 102 % of control.
As for `Nc1ccc2oc3cccc(N)c3c(=O)c2c1`, the T/C reads like this: under setting [15], 94 % of control; under setting [16], 96 % of control; under setting [17], 96 % of control.
As for `O=[N+]([O-])c1c(Cl)cc(Cl)c([N+](=O)[O-])c1Cl`, the T/C is 94 % of control under setting [8], 90 % of control under setting [9] and 94 % of control under setting [10].
On to `NC(C(=O)O)c1ccccc1Cl` (stereo not given), for which the T/C runs as follows: under setting [6], 95 % of control; (dose: 100.0 mg/kg/injection, schedule: Q01DX001 (ip), vehicle: Klucel (hydroxypropylcellulose) (HPC)) 92 % of control; under setting [7], 101 % of control; (dose: 200.0 mg/kg/injection, schedule: Q01DX001 (ip), vehicle: Klucel (hydroxypropylcellulose) (HPC)) 102 % of control; (dose: 200.0 mg/kg/injection, schedule: Q01DX009 (ip), vehicle: Klucel (hydroxypropylcellulose) (HPC)) 107 % of control; (dose: 400.0 mg/kg/injection, schedule: Q01DX001 (ip), vehicle: Klucel (hydroxypropylcellulose) (HPC)) 91 % of control.
As to `CC1(C)OC(N)=C(C(N)=O)C1c1ccc(Cl)cc1` (stereo not given), the T/C is, setting by setting: under setting [15], 97 % of control; under setting [16], 95 % of control; under setting [17], 95 % of control.
Consider `Clc1ccc(COC(Cn2ccnc2)c2ccc(Cl)cc2Cl)cc1` (stereo not given), for which the T/C was 93 % of control (dose: 25.0 mg/kg/injection, schedule: Q04DX002 (ip), vehicle: DMSO); 93 % of control (dose: 50.0 mg/kg/injection, schedule: Q04DX002 (ip), vehicle: DMSO); 97 % of control (dose: 100.0 mg/kg/injection, schedule: Q04DX002 (ip), vehicle: DMSO).
Turning to `CN=C(NC)c1cccc(NC(=O)/C=C\c2ccc(/C=C/C(=O)Nc3cccc(C(=NC)NC)c3)cc2)c1`, the T/C reads like this: (dose: 0.56 mg/kg/injection, schedule: Q01DX Z (ip), vehicle: carboxymethylcellulose (CMC)) 103 % of control; (dose: 1.12 mg/kg/injection, schedule: Q01DX Z (ip), vehicle: carboxymethylcellulose (CMC)) 103 % of control; (dose: 2.25 mg/kg/injection, schedule: Q01DX Z (ip), vehicle: carboxymethylcellulose (CMC)) 120 % of control.
In the case of `O=C(/C=C/c1ccccc1)NC(=S)Nc1ccc(O)cc1`, the T/C is 96 % of control under setting [18]; 95 % of control and 107 % of control under setting [1]; 111 % of control and 88 % of control (dose: 100.0 mg/kg/injection, schedule: Q04DX002 (ip), vehicle: saline with Tween-80); 98 % of control (dose: 200.0 mg/kg/injection, schedule: Q01DX001 (ip), vehicle: saline with Tween-80); 96 % of control and 92 % of control under setting [3]; 95 % of control and 111 % of control (dose: 200.0 mg/kg/injection, schedule: Q04DX002 (ip), vehicle: saline with Tween-80). Also, the T/C was 96 % of control (dose: 400.0 mg/kg/injection, schedule: Q01DX001 (ip), vehicle: saline with Tween-80); 101 % of control under setting [11]; 95 % of control (dose: 400.0 mg/kg/injection, schedule: Q04DX002 (ip), vehicle: saline with Tween-80).
Turning to `O=C(NCCCl)Nc1cccc(Cl)c1`, the T/C is 97 % of control (dose: 25.0 mg/kg/injection, schedule: Q01DX001 (ip), vehicle: saline with Tween-80); 94 % of control (dose: 50.0 mg/kg/injection, schedule: Q01DX001 (ip), vehicle: saline with Tween-80); 86 % of control under setting [18].
